The values below come from ChEMBL document CHEMBL1201862, “PubChem BioAssay data set” (2004).

Holding throughout (assay): NCI tumour cell line growth inhibition, 48 h
The test system of test [1] is A498.
The subject of test [2] is HOP-92.
Test [3] relates to SF-295.
The subject of test [4] is RXF 393.
Test [5] deals with Hs-578T.
Test [6] has as its system RPMI-8226.
Test [7] deals with MDA-N.
Test [8] concerns IGROV-1.
Test [9] has as its system HL-60.
The subject of test [10] is OVCAR-5.
Test [11] has as its system 786-0.
Test [12] concerns K562.
Test [13] concerns HT-29.
Test [14] deals with COLO 205.
Test [15] deals with SF-268.
In test [16] the test system is M14.
Test [17] has as its system LOX IMVI.
Test [18] deals with UACC-257.
For test [19], the system named is A549.
Test [20] concerns SK-OV-3.

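Five compound concentrations were applied to cells in 96-well plates for 48 hours; endpoints were derived by simple linear interpolation of the resulting dose-response curve. GI50 = concentration required for 50% inhibition of growth.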 The source made the active and inactive calls. Cut-off read from the data, not from the text of the source: active = GI50 up to about 1.1 µM and inactive = higher. Bounds are passed on as bounds.

As to `CC(=O)c1cccc(Nc2c3ccccc3nc3occc23)c1`, the GI50 is 31.4 µM (inactive) in [1]; 11.5 µM (inactive) in test [2]; 3.83 µM (inactive) in test [3]; 0.09 µM (active) in test [4]; 5.15 µM (inactive) in test [5]; 3.34 µM (inactive) in test [6]. Moreover, the GI50 in test [7] was 2.58 µM (inactive); in test [8], 2.54 µM (inactive); in test [9] it was 3.48 µM (inactive); in [10] it was 37.2 µM (inactive); in test [11] it was 4.08 µM (inactive); in [12], 3.26 µM (inactive). Moreover, the GI50 in test [13] was 1.51 µM (inactive); in [14], 11.7 µM (inactive); in test [15], 16.1 µM (inactive); in [16] it was 4.3 µM (inactive); in test [17], 5.04 µM (inactive); in test [18], 11.3 µM (inactive). Besides, the GI50 is 16.5 µM (inactive) in [19] and 10.6 µM (inactive) in [20].

In the case of `COc1ccc(OC)c(NC(=O)c2c(Cl)c(Cl)c(Cl)c(Cl)c2-c2nc3ccccc3[nH]2)c1`, the GI50 in [1] was > 100 µM (inactive); in test [2], > 100 µM (inactive); in [3], > 100 µM (inactive); in test [4], > 100 µM (inactive); in [5], > 100 µM (inactive); in [6], 45.4 µM (inactive). The GI50 in test [7] is > 100 µM (inactive); in test [8] it was 89.1 µM (inactive); in test [9] it was 53.7 µM (inactive); in test [10], > 100 µM (inactive); in test [11], > 100 µM (inactive); in [12] it was > 100 µM (inactive). For the same molecule, the GI50 in test [13], in test [14], in test [15], in test [16], in [17] and in test [18] was > 100 µM (inactive) throughout. Moreover, the GI50 in [19] and in test [20] was > 100 µM (inactive) in each case.

Turning to `O=[N+]([O-])c1cc2no[n+]([O-])c2cc1N1CCCCC1`, the GI50 in test [1] is 17.9 µM (inactive); in [2], 2.4 µM (inactive); in [3], 17.4 µM (inactive); in test [4], 1.51 µM (inactive); in [5] it was 25.1 µM (inactive); in test [6] it was 1.28 µM (inactive). In addition, the GI50 is 2.59 µM (inactive) in test [7]; 3.21 µM (inactive) in [8]; 1.5 µM (inactive) in [9]; 8.39 µM (inactive) in test [10]; 1.29 µM (inactive) in test [11]; 1.43 µM (inactive) in [12]. Further, the GI50 in test [13] was 1.76 µM (inactive); in test [14], 5.37 µM (inactive); in [15], 8.18 µM (inactive); in test [16], 2.62 µM (inactive); in test [17], 1.79 µM (inactive); in test [18], 8.24 µM (inactive). Further, the GI50 in [19] is 11.3 µM (inactive); in [20], 14 µM (inactive).

Take `O=C1CCC(C(=O)O)C2=C1CCCC2` (stereo not given): the GI50 in test [1] was > 100 µM (inactive); in test [2], > 100 µM (inactive); in test [3] it was > 36.1 µM (inactive); in [4] it was > 100 µM (inactive); in [5] it was > 100 µM (inactive); in test [6] it was > 100 µM (inactive). The GI50 is > 100 µM (inactive) in test [7]; > 100 µM (inactive) in test [8]; > 100 µM (inactive) in test [9]; > 21.5 µM (inactive) in [10]; > 28.6 µM (inactive) in [11]; > 100 µM (inactive) in [12]. Besides, the GI50 in [13], in [14], in test [15], in [16], in test [17] and in test [18] was > 100 µM (inactive) in each case. Also, the GI50 was > 34 µM (inactive) in test [19] and > 43.4 µM (inactive) in [20].

With `CC(Oc1ccccc1Cl)C(=O)NN1C(=O)CC(=O)N(c2ccc(Cl)cc2)C1=S` (stereo not given), the GI50 in test [1] is 20.4 µM (inactive); in test [2], 22.6 µM (inactive); in [3], 44.1 µM (inactive); in test [4], 30 µM (inactive); in test [5], 49.8 µM (inactive); in [6], 33.2 µM (inactive). Further, the GI50 in test [7] is 37.6 µM (inactive); in test [8], 50.1 µM (inactive); in test [9], 3.21 µM (inactive); in [10] it was 75.3 µM (inactive); in test [11], 40.8 µM (inactive); in [12], 13.1 µM (inactive). For the same molecule, the GI50 is 47.8 µM (inactive) in test [13]; 39.7 µM (inactive) in test [14]; 67.1 µM (inactive) in test [15]; 47.5 µM (inactive) in test [16]; 30.8 µM (inactive) in [17]; 45.1 µM (inactive) in test [18]. The figures for the GI50 in test [19] and in [20] were 36.5 µM (inactive) and 59 µM (inactive), respectively.

In the case of `O=C1C=C(c2c(-c3ccccc3)[nH]c3ccccc23)C(=O)N1c1ccccc1`, the GI50 in [1] was 10.6 µM (inactive); in test [2], 9.14 µM (inactive); in [3] it was 10.6 µM (inactive); in test [4], 3.8 µM (inactive); in [5], 4.15 µM (inactive); in test [6], 5.6 µM (inactive). The GI50 in [7] is 3.89 µM (inactive); in [8], 14.5 µM (inactive); in test [9] it was 3.96 µM (inactive); in [10] it was 14.8 µM (inactive); in [11], 8.65 µM (inactive); in test [12], 7.41 µM (inactive). For the same molecule, the GI50 in test [13] was 7.18 µM (inactive); in [14], 8.3 µM (inactive); in test [15], 4.63 µM (inactive); in [16] it was 11.4 µM (inactive); in [17] it was 3.77 µM (inactive); in test [18], 9.25 µM (inactive). Moreover, the GI50 is 14.6 µM (inactive) in test [19] and 24.8 µM (inactive) in test [20].

Consider `N#Cc1cc(-c2nc3ccc(F)cc3s2)ccc1N`, for which the GI50 in test [1], in test [2], in test [3], in [4], in [5] and in test [6] was > 100 µM (inactive) each time. For the same molecule, the GI50 is 22.1 µM (inactive) in [7]; 3.27 µM (inactive) in [8]; > 100 µM (inactive) in test [9]; > 100 µM (inactive) in test [10]; > 100 µM (inactive) in test [11]; 80.4 µM (inactive) in test [12]. Besides, the GI50 was > 100 µM (inactive) in test [13]; 28.9 µM (inactive) in test [14]; > 100 µM (inactive) in test [15]; > 100 µM (inactive) in test [16]; 74.8 µM (inactive) in test [17]; > 100 µM (inactive) in test [18]. The GI50 in test [19] is > 100 µM (inactive); in test [20] it was 21.8 µM (inactive).
